# Experiments:
# Format in all cases: in vivo
# [1] = test system: blackgrass (Alopecurus myosuroides); assay: Test A greenhouse herbicide test, postemergence; conditions: for Blackgrass plant response rating: 0 is no effect, 100 is complete control
# Method in brief: (§1)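 Visual injury score, 0 (no effect) to 100 (complete control), versus untreated controls roughly 10 d after postemergence spray; plants at one- to two-leaf stage, 2 to 10 cm tall, in loam soil and sand, kept in greenhouse.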
# [2] = test system: galium (catchweed bedstraw, Galium aparine); assay: Test A greenhouse herbicide test, postemergence; conditions: for Galium plant response rating: 0 is no effect, 100 is complete control
# Method in brief: as §1
# [3] = test system: barnyardgrass (Echinochloa crus-galli); assay: Test C greenhouse herbicide test, pre- and postemergence
# Method in brief: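 Visual ratings on a 0 to 100 scale (0 = no effect, 100 = complete control) versus untreated controls, scored 13–15 d after treatment. Soil-applied preemergence to seeded loam/sand; foliar postemergence to 1- to 4-leaf plants (2–18 cm) in peat-vermiculite mix; compounds formulated in solvent plus surfactant.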
# [4] = test system: ragweed (common ragweed, Ambrosia elatior); assay: Test A greenhouse herbicide test, pre- and postemergence
# Method in brief: (§2)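 Seeds in loam–sand blend received a preemergence directed soil spray; plants at 2–10 cm, one- to two-leaf stage, received postemergence sprays. Compounds in a non-phytotoxic solvent with surfactant. After about 10 d in a greenhouse, injury rated visually versus untreated controls on a 0–100 scale (100 = complete control).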
# [5] = test system: foxtail, giant (giant foxtail, Setaria faberii); assay: as above
# Method in brief: as §2
# kochia (Kochia scoparia) = assay: as above
# Method in brief: as §2
# [6] = test system: wheat (Triticum aestivum); assay: as above; conditions: Postemergence; for Wheat plant response rating: 0 is no effect, 100 is complete control
# Method in brief: as §2
# [7] = test system: pigweed (Amaranthus retroflexus); assay: as above
# Method in brief: as §2
# [8] = test system: barnyardgrass (Echinochloa crus-galli); assay: as above
# Method in brief: as §2
# [9] = test system: ryegrass, Italian (Italian ryegrass, Lolium multiflorum); assay: as above
# Method in brief: as §2
# corn (Zea mays) = assay: as above; conditions: Postemergence; for Corn plant response rating: 0 is no effect, 100 is complete control
# Method in brief: as §2
# [10] = 125 g ai/ha, 0 to 100 scale where 0 is no effect and 100 is complete control
# [11] = 500 g ai/ha, visual rating after approx. 10 d, 0 to 100 scale (0 no effect, 100 complete control)
# [12] = Postemergence, 31 g ai/ha, scale 0 to 100 (0 no effect, 100 complete control)
# [13] = Postemergence, 125 g ai/ha, scale 0 to 100, 0 is no effect, 100 is complete control
# [14] = Postemergence, 250 g ai/ha, scale 0 to 100, 0 no effect, 100 complete control, 13 to 15 d
# [15] = Preemergence, 31 g ai/ha, scale 0 to 100, 0 is no effect, 100 is complete control
# [16] = Preemergence, 62 g ai/ha, scale 0 to 100, 0 is no effect, 100 is complete control
# [17] = Preemergence, 125 g ai/ha, scale 0 to 100, 0 is no effect, 100 is complete control
# [18] = Preemergence, 250 g ai/ha, scale 0 to 100 (0 no effect, 100 complete control)
# [19] = postemergence, 62 g ai/ha, scale 0 to 100, 0 no effect, 100 complete control
# [20] = Postemergence, 125 g ai/ha, 0 to 100 scale where 0 is no effect and 100 is complete control
# [21] = Postemergence, 500 g ai/ha, visual rating after approx. 10 d, 0 to 100 scale (0 no effect, 100 complete control)
# [22] = Preemergence, 125 g ai/ha, 0 to 100 scale where 0 is no effect and 100 is complete control
# [23] = Preemergence, 500 g ai/ha, 0 to 100 scale where 0 is no effect and 100 is complete control
# [24] = Postemergence, 500 g ai/ha, 0 to 100 scale, 0 is no effect, 100 is complete control
# [25] = Postemergence, 31 g ai/ha, 0 to 100 scale (0 no effect, 100 complete control)
# [26] = Postemergence, 1000 g ai/ha, 0 to 100 scale, 0 is no effect, 100 is complete control
# [27] = Preemergence, 1000 g ai/ha, 0 to 100 scale, 0 no effect, 100 complete control
# [28] = Preemergence, 500 g ai/ha, 0 to 100 scale, 0 no effect, 100 complete control
# [29] = 125 g ai/ha, 0 to 100 scale, 0 no effect, 100 complete control
# [30] = Postemergence, 125 g ai/ha, 0 to 100 scale, 0 no effect, 100 complete control
# [31] = Preemergence, 125 g ai/ha, visual injury rating, 0 to 100 scale (0 no effect, 100 complete control), approx. 10 d
structure (smiles),measurement,setting,value
CCCC(=O)Oc1c(C)nn(C)c(=O)c1-c1c(C)sc2c(C)cc(C)cc12 [Compound 106],"Plant response rating, Blackgrass",[1]; [10],90
same,Blackgrass plant response rating,"[1]; 500 g ai/ha, 0 to 100 scale",90
same,"Plant response rating, Galium",[2]; [10],100
same,"Plant response rating, Galium",[2]; [11],100
same,"Plant response rating, Barnyardgrass",[3]; [12],15
same,"Plant response rating, Barnyardgrass",[3]; [13],20
same,"Plant response rating, Barnyardgrass",[3]; [14],40
same,"Plant response rating, Barnyardgrass",[3]; [15],25
same,"Plant response rating, Barnyardgrass",[3]; [16],45
same,"Plant response rating, Barnyardgrass",[3]; [17],85
same,Barnyardgrass plant response rating,[3]; [18],95
same,Barnyardgrass plant response rating,[3]; [19],15
same,"Plant response rating, Ragweed",[4]; [20],90
same,"Plant response rating, Ragweed",[4]; [21],90
same,Ragweed plant response rating,[4]; [22],90
same,"Plant response rating, Ragweed",[4]; [23],100
same,"Plant response rating, Foxtail, Giant",[5]; [20],90
same,"Plant response rating, Foxtail, Giant",[5]; [21],90
same,"Foxtail, Giant plant response rating",[5]; [22],100
same,"Plant response rating, Foxtail, Giant",[5]; [23],100
same,"Plant response rating, Kochia",kochia (Kochia scoparia); [20],70
same,"Plant response rating, Kochia",kochia (Kochia scoparia); [21],90
same,Kochia plant response rating,kochia (Kochia scoparia); [22],20
same,"Plant response rating, Kochia",kochia (Kochia scoparia); [23],90
same,"Plant response rating, Wheat",[6]; [10],0
same,"Plant response rating, Wheat",[6]; [11],20
same,"Plant response rating, Pigweed",[7]; [20],90
same,"Plant response rating, Pigweed",[7]; [21],90
same,Pigweed plant response rating,[7]; [22],100
same,"Plant response rating, Pigweed",[7]; [23],100
same,"Plant response rating, Barnyardgrass",[8]; [20],70
same,Barnyardgrass plant response rating,[8]; [24],90
same,Barnyardgrass plant response rating,[8]; [22],80
same,"Plant response rating, Barnyardgrass",[8]; [23],100
same,"Plant response rating, Ryegrass, Italian",[9]; [20],90
same,"Plant response rating, Ryegrass, Italian",[9]; [21],100
same,"Ryegrass, Italian plant response rating",[9]; [22],100
same,"Plant response rating, Ryegrass, Italian",[9]; [23],100
same,"Plant response rating, Corn",corn (Zea mays); [10],0
same,"Plant response rating, Corn",corn (Zea mays); [11],20
Cc1ccc2ccc(C)c(-c3c(O)c(C)nn(C)c3=O)c2c1 [Compound 60],Blackgrass plant response rating,"[1]; 1000 g ai/ha, 0 to 100 scale",90
same,Galium plant response rating,"[2]; 1000 g ai/ha, 0 to 100 scale",100
same,Barnyardgrass plant response rating,[3]; [25],20
same,"Plant response rating, Barnyardgrass",[3]; [13],35
same,"Plant response rating, Barnyardgrass",[3]; [14],65
same,"Plant response rating, Barnyardgrass",[3]; [15],10
same,"Plant response rating, Barnyardgrass",[3]; [16],40
same,"Plant response rating, Barnyardgrass",[3]; [17],85
same,Barnyardgrass plant response rating,[3]; [18],90
same,Barnyardgrass plant response rating,[3]; [19],25
same,Ragweed plant response rating,[4]; [26],100
same,"Plant response rating, Ragweed",[4]; [27],100
same,"Foxtail, Giant plant response rating",[5]; [26],90
same,"Plant response rating, Foxtail, Giant",[5]; [27],90
same,Kochia plant response rating,kochia (Kochia scoparia); [26],100
same,"Plant response rating, Kochia",kochia (Kochia scoparia); [27],80
same,Wheat plant response rating,"[6]; 1000 g ai/ha, 0 to 100 scale",70
same,Pigweed plant response rating,[7]; [26],100
same,"Plant response rating, Pigweed",[7]; [27],100
same,Barnyardgrass plant response rating,[8]; [26],90
same,"Plant response rating, Barnyardgrass",[8]; [27],80
same,"Ryegrass, Italian plant response rating",[9]; [26],100
same,"Plant response rating, Ryegrass, Italian",[9]; [27],100
same,Corn plant response rating,"corn (Zea mays); 1000 g ai/ha, 0 to 100 scale",50
CCC(=O)Oc1c(C)nn(C)c(=O)c1-c1c(C)sc2ccc(C)cc12 [Compound 42],"Plant response rating, Blackgrass",[1]; [10],80
same,Blackgrass plant response rating,"[1]; 500 g ai/ha, 0 to 100 scale",90
same,"Plant response rating, Galium",[2]; [10],100
same,Galium plant response rating,"[2]; 500 g ai/ha, 0 to 100 scale",100
same,Barnyardgrass plant response rating,[3]; [25],20
same,"Plant response rating, Barnyardgrass",[3]; [13],30
same,"Plant response rating, Barnyardgrass",[3]; [14],40
same,"Plant response rating, Barnyardgrass",[3]; [15],0
same,"Plant response rating, Barnyardgrass",[3]; [16],30
same,"Plant response rating, Barnyardgrass",[3]; [17],60
same,Barnyardgrass plant response rating,[3]; [18],80
same,Barnyardgrass plant response rating,[3]; [19],30
same,"Plant response rating, Ragweed",[4]; [20],100
same,Ragweed plant response rating,[4]; [24],100
same,Ragweed plant response rating,[4]; [22],90
same,"Plant response rating, Ragweed",[4]; [28],100
same,"Plant response rating, Foxtail, Giant",[5]; [20],90
same,"Foxtail, Giant plant response rating",[5]; [24],100
same,"Foxtail, Giant plant response rating",[5]; [22],80
same,"Plant response rating, Foxtail, Giant",[5]; [28],100
same,"Plant response rating, Kochia",kochia (Kochia scoparia); [20],100
same,Kochia plant response rating,kochia (Kochia scoparia); [24],100
same,Kochia plant response rating,kochia (Kochia scoparia); [22],80
same,"Plant response rating, Kochia",kochia (Kochia scoparia); [28],100
same,"Plant response rating, Wheat",[6]; [10],0
same,Wheat plant response rating,"[6]; 500 g ai/ha, 0 to 100 scale",20
same,"Plant response rating, Pigweed",[7]; [20],90
same,Pigweed plant response rating,[7]; [24],100
same,Pigweed plant response rating,[7]; [22],100
same,"Plant response rating, Pigweed",[7]; [28],100
same,"Plant response rating, Barnyardgrass",[8]; [20],30
same,Barnyardgrass plant response rating,[8]; [24],90
same,Barnyardgrass plant response rating,[8]; [22],80
same,"Plant response rating, Barnyardgrass",[8]; [28],100
same,"Plant response rating, Ryegrass, Italian",[9]; [20],100
same,"Ryegrass, Italian plant response rating",[9]; [24],100
same,"Ryegrass, Italian plant response rating",[9]; [22],100
same,"Plant response rating, Ryegrass, Italian",[9]; [28],100
same,"Plant response rating, Corn",corn (Zea mays); [10],0
same,Corn plant response rating,"corn (Zea mays); 500 g ai/ha, 0 to 100 scale",20
Cc1ccc2ccccc2c1-c1c(OC(=O)N2CCOCC2)c(Br)nn(C)c1=O [Compound 176],"Plant response rating, Blackgrass",[1]; [29],30
same,"Plant response rating, Blackgrass",[1]; [11],30
same,"Plant response rating, Galium",[2]; [29],90
same,"Plant response rating, Galium",[2]; [11],100
same,"Plant response rating, Barnyardgrass",[3]; [12],5
same,Barnyardgrass plant response rating,"[3]; Postemergence, 62 g ai/ha, 0 to 100 scale (0 no effect, 100 complete control)",5
same,"Plant response rating, Barnyardgrass","[3]; Postemergence, 250 g ai/ha, scale 0 to 100, 0 is no effect, 100 is complete control",20
same,Barnyardgrass plant response rating,"[3]; postemergence, 125 g ai/ha, scale 0 to 100, 0 no effect, 100 complete control",10
same,"Plant response rating, Ragweed",[4]; [30],40
same,"Plant response rating, Ragweed",[4]; [21],100
same,"Plant response rating, Ragweed",[4]; [31],20
same,"Plant response rating, Ragweed",[4]; [23],70
same,"Plant response rating, Foxtail, Giant",[5]; [30],0
same,"Plant response rating, Foxtail, Giant",[5]; [21],10
same,"Plant response rating, Foxtail, Giant",[5]; [31],0
same,"Plant response rating, Foxtail, Giant",[5]; [23],10
same,"Plant response rating, Kochia",kochia (Kochia scoparia); [30],30
same,"Plant response rating, Kochia",kochia (Kochia scoparia); [21],70
same,"Plant response rating, Kochia",kochia (Kochia scoparia); [31],0
same,"Plant response rating, Kochia",kochia (Kochia scoparia); [23],20
same,"Plant response rating, Wheat",[6]; [29],0
same,"Plant response rating, Wheat",[6]; [11],0
same,"Plant response rating, Pigweed",[7]; [30],30
same,"Plant response rating, Pigweed",[7]; [21],90
same,"Plant response rating, Pigweed",[7]; [31],0
same,"Plant response rating, Pigweed",[7]; [23],90
same,"Plant response rating, Barnyardgrass",[8]; [30],0
same,"Plant response rating, Barnyardgrass",[8]; [21],10
same,"Plant response rating, Barnyardgrass",[8]; [31],0
same,"Plant response rating, Barnyardgrass",[8]; [23],10
same,"Plant response rating, Ryegrass, Italian",[9]; [30],30
same,"Plant response rating, Ryegrass, Italian",[9]; [21],100
same,"Plant response rating, Ryegrass, Italian",[9]; [31],0
same,"Plant response rating, Ryegrass, Italian",[9]; [23],90
same,"Plant response rating, Corn",corn (Zea mays); [29],0
same,"Plant response rating, Corn",corn (Zea mays); [11],0
